Test results as given in PubChem BioAssay (NCI).
“And” between values parts separate entries of the source, which are not always exact repeats. Equal entries are not always repeated.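 Five concentrations, 48 hours, 96-well plates. At the GI50, growth is halved. TGI marks complete inhibition of growth.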

Legend:
Experiment in all cases: NCI-60 cell line screen, 48 h
786-0 renal = test system: 786-0 renal
A498 renal = test system: A498 renal
A549 NSCLC = test system: A549 NSCLC
ACHN renal = test system: ACHN renal
COLO 205 colon = test system: COLO 205 colon
DU-145 prostate = test system: DU-145 prostate
EKVX NSCLC = test system: EKVX NSCLC
HCT-116 colon = test system: HCT-116 colon
HL-60(TB) leukemia = test system: HL-60(TB) leukemia
HOP-62 NSCLC = test system: HOP-62 NSCLC
HOP-92 NSCLC = test system: HOP-92 NSCLC
HS 578T breast = test system: HS 578T breast
HT29 colon = test system: HT29 colon
IGROV1 ovarian = test system: IGROV1 ovarian
K-562 leukemia = test system: K-562 leukemia
KM12 colon = test system: KM12 colon
LOX IMVI melanoma = test system: LOX IMVI melanoma
M14 melanoma = test system: M14 melanoma
MCF7 breast = test system: MCF7 breast
MDA-MB-231 breast = test system: MDA-MB-231 breast
MDA-MB-435 = test system: MDA-MB-435
MDA-N = test system: MDA-N
MOLT-4 leukemia = test system: MOLT-4 leukemia
NCI-H522 lung = test system: NCI-H522 lung
OVCAR-3 ovarian = test system: OVCAR-3 ovarian
OVCAR-4 ovarian = test system: OVCAR-4 ovarian
OVCAR-5 ovarian = test system: OVCAR-5 ovarian
OVCAR-8 ovarian = test system: OVCAR-8 ovarian
PC-3 prostate = test system: PC-3 prostate
RPMI-8226 leukemia = test system: RPMI-8226 leukemia
RXF 393 renal = test system: RXF 393 renal
SF-268 CNS = test system: SF-268 CNS
SF-295 CNS = test system: SF-295 CNS
SF-539 CNS = test system: SF-539 CNS
SK-MEL-2 melanoma = test system: SK-MEL-2 melanoma
SK-MEL-28 melanoma = test system: SK-MEL-28 melanoma
SK-MEL-5 melanoma = test system: SK-MEL-5 melanoma
SK-OV-3 ovarian = test system: SK-OV-3 ovarian
SN12C renal = test system: SN12C renal
SNB-19 CNS = test system: SNB-19 CNS
SNB-75 CNS = test system: SNB-75 CNS
SW-620 colon = test system: SW-620 colon
T-47D breast = test system: T-47D breast
TK-10 renal = test system: TK-10 renal
U251 CNS = test system: U251 CNS
UACC-257 melanoma = test system: UACC-257 melanoma
UO-31 renal = test system: UO-31 renal
BT-549 breast = test system: BT-549 breast
CAKI-1 renal = test system: CAKI-1 renal
CCRF-CEM leukemia = test system: CCRF-CEM leukemia
HCC-2998 colon = test system: HCC-2998 colon
HCT-15 colon = test system: HCT-15 colon
MALME-3M melanoma = test system: MALME-3M melanoma
NCI-H226 lung = test system: NCI-H226 lung
NCI-H23 lung = test system: NCI-H23 lung
NCI-H460 lung = test system: NCI-H460 lung
NCI/ADR-RES ovarian = test system: NCI/ADR-RES ovarian
SR leukemia = test system: SR leukemia
UACC-62 melanoma = test system: UACC-62 melanoma

`OCC(O)C(O)C(C=NNc1ncnc2ccc(Br)cc12)=NNc1ncnc2ccc(Br)cc12` (stereo not drawn) was tested, and the TGI (786-0 renal) was > 100 µM, the TGI (A498 renal) was 18 µM and 75.2 µM and the TGI (A549 NSCLC) was 60.7 µM and > 100 µM. The TGI (ACHN renal) was 14.2 µM and > 100 µM, the TGI (COLO 205 colon) was > 100 µM and the TGI (DU-145 prostate) was 9.82 µM. The TGI (EKVX NSCLC) was 20.9 µM and > 100 µM, the TGI (HCT-116 colon) was > 100 µM and the TGI (HL-60(TB) leukemia) was > 100 µM. The TGI (HOP-62 NSCLC) was 25 µM and > 100 µM, the TGI (HOP-92 NSCLC) was 10.4 µM and > 100 µM and the TGI (HS 578T breast) was > 100 µM. For the same compound, the TGI (HT29 colon) was > 100 µM, the TGI (IGROV1 ovarian) was 12.2 µM and > 100 µM and the TGI (K-562 leukemia) was > 100 µM. For the same compound, the TGI (KM12 colon) was 69 µM and > 100 µM, the TGI (LOX IMVI melanoma) was 14.9 µM and > 100 µM and the TGI (M14 melanoma) was 4.91 µM and 17.4 µM. For the same compound, the TGI (MCF7 breast) was 35 µM and > 100 µM, the TGI (MDA-MB-231 breast) was 31.3 µM and > 100 µM and the TGI (MDA-MB-435) was 76.9 µM and > 100 µM. The TGI (MDA-N) was > 100 µM, the TGI (MOLT-4 leukemia) was 12.1 µM and > 100 µM and the TGI (NCI-H522 lung) was 11.3 µM and 35.9 µM. The TGI (OVCAR-3 ovarian) was 28.2 µM and > 100 µM, the TGI (OVCAR-4 ovarian) was 23.7 µM and > 100 µM and the TGI (OVCAR-5 ovarian) was 88 µM and > 100 µM. The TGI (OVCAR-8 ovarian) was 46.9 µM and > 100 µM, the TGI (PC-3 prostate) was 77.4 µM and > 100 µM and the TGI (RPMI-8226 leukemia) was > 100 µM. For the same compound, the TGI (RXF 393 renal) was 72.4 µM, the TGI (SF-268 CNS) was 25 µM and > 100 µM and the TGI (SF-295 CNS) was > 100 µM. For the same compound, the TGI (SF-539 CNS) was 33.7 µM and > 100 µM, the TGI (SK-MEL-2 melanoma) was 12.1 µM and > 100 µM and the TGI (SK-MEL-28 melanoma) was > 100 µM. The TGI (SK-MEL-5 melanoma) was 2.68 µM and 4.28 µM, the TGI (SK-OV-3 ovarian) was > 100 µM and the TGI (SN12C renal) was > 100 µM. For the same compound, the TGI (SNB-19 CNS) was > 100 µM, the TGI (SNB-75 CNS) was 17.6 µM and > 100 µM and the TGI (SW-620 colon) was > 100 µM. For the same compound, the TGI (T-47D breast) was 16.1 µM and > 100 µM, the TGI (TK-10 renal) was > 100 µM and the TGI (U251 CNS) was 67.3 µM and > 100 µM. For the same compound, the TGI (UACC-257 melanoma) was > 100 µM and the TGI (UO-31 renal) was 25.6 µM and > 100 µM.

In the case of `CN1CCN(Cc2ccc(NC(=O)c3[nH]ncc3Nc3cc(OC4CCCC4)ncn3)cc2)CC1`, the GI50 (786-0 renal) is reported as 1350 nM, the TGI (786-0 renal) is reported as 3.1 µM and the GI50 (A498 renal) is reported as 6.37 µM. The TGI (A498 renal) was 19.4 µM, the GI50 (A549 NSCLC) was 2110 nM and the TGI (A549 NSCLC) was 10.5 µM. For the same compound, the GI50 (ACHN renal) was 1090 nM, the TGI (ACHN renal) was 3.1 µM and the GI50 (BT-549 breast) was 1750 nM. For the same compound, the TGI (BT-549 breast) was 3.97 µM, the GI50 (CAKI-1 renal) was 366 nM and the TGI (CAKI-1 renal) was 9.11 µM. For the same compound, the GI50 (CCRF-CEM leukemia) was 2390 nM, the TGI (CCRF-CEM leukemia) was 11.2 µM and the GI50 (COLO 205 colon) was 1240 nM. The TGI (COLO 205 colon) was 3.11 µM, the GI50 (DU-145 prostate) was 2350 nM and the TGI (DU-145 prostate) was 12.9 µM. The GI50 (EKVX NSCLC) was 3.86 µM, the TGI (EKVX NSCLC) was 18.6 µM and the GI50 (HCC-2998 colon) was 3.1 µM. For the same compound, the TGI (HCC-2998 colon) was 10.5 µM, the GI50 (HCT-116 colon) was 755 nM and the TGI (HCT-116 colon) was 11 µM. For the same compound, the GI50 (HCT-15 colon) was 1240 nM, the TGI (HCT-15 colon) was 11 µM and the GI50 (HL-60(TB) leukemia) was 1770 nM. The TGI (HL-60(TB) leukemia) was 4.3 µM, the GI50 (HOP-62 NSCLC) was 3.7 µM and the TGI (HOP-62 NSCLC) was 13.2 µM. The GI50 (HOP-92 NSCLC) was 6.69 µM, the TGI (HOP-92 NSCLC) was 18.6 µM and the GI50 (HS 578T breast) was 2200 nM. It also gave a TGI (HS 578T breast) of 30 µM, a GI50 (HT29 colon) of 2530 nM and a TGI (HT29 colon) of 8.53 µM. It also gave a GI50 (IGROV1 ovarian) of 1750 nM, a TGI (IGROV1 ovarian) of 10.8 µM and a GI50 (K-562 leukemia) of 1640 nM. The TGI (K-562 leukemia) was 13.3 µM, the GI50 (KM12 colon) was 2180 nM and the TGI (KM12 colon) was 6.19 µM. The GI50 (LOX IMVI melanoma) was 1630 nM, the TGI (LOX IMVI melanoma) was 3.83 µM and the GI50 (M14 melanoma) was 1350 nM. It also gave a TGI (M14 melanoma) of 3.62 µM, a GI50 (MALME-3M melanoma) of 2050 nM and a TGI (MALME-3M melanoma) of 5.43 µM. For the same compound, the GI50 (MCF7 breast) was 1590 nM, the TGI (MCF7 breast) was 4.96 µM and the GI50 (MDA-MB-231 breast) was 2640 nM. The TGI (MDA-MB-231 breast) was 7.46 µM, the GI50 (MDA-MB-435) was 1840 nM and the TGI (MDA-MB-435) was 8.32 µM. It also gave a GI50 (MOLT-4 leukemia) of 2160 nM, a TGI (MOLT-4 leukemia) of 8.66 µM and a GI50 (NCI-H226 lung) of 2980 nM. For the same compound, the TGI (NCI-H226 lung) was 10.8 µM, the GI50 (NCI-H23 lung) was 3.07 µM and the TGI (NCI-H23 lung) was 14.4 µM. The GI50 (NCI-H460 lung) was 1610 nM, the TGI (NCI-H460 lung) was 5.97 µM and the GI50 (NCI-H522 lung) was 2150 nM. The TGI (NCI-H522 lung) was 7.91 µM, the GI50 (NCI/ADR-RES ovarian) was 3.68 µM and the TGI (NCI/ADR-RES ovarian) was 15 µM. For the same compound, the GI50 (OVCAR-3 ovarian) was 1770 nM, the TGI (OVCAR-3 ovarian) was 3.69 µM and the GI50 (OVCAR-4 ovarian) was 2070 nM. It also gave a TGI (OVCAR-4 ovarian) of 7.18 µM, a GI50 (OVCAR-5 ovarian) of 2790 nM and a TGI (OVCAR-5 ovarian) of 7.12 µM. The GI50 (OVCAR-8 ovarian) was 4.95 µM, the TGI (OVCAR-8 ovarian) was 26.9 µM and the GI50 (PC-3 prostate) was 2260 nM. The TGI (PC-3 prostate) was 11.1 µM, the GI50 (RPMI-8226 leukemia) was 2940 nM and the TGI (RPMI-8226 leukemia) was 6.71 µM. It also gave a GI50 (RXF 393 renal) of 1360 nM, a TGI (RXF 393 renal) of 2.91 µM and a GI50 (SF-268 CNS) of 4.48 µM. The TGI (SF-268 CNS) was 19 µM, the GI50 (SF-295 CNS) was 2930 nM and the TGI (SF-295 CNS) was 12.5 µM. It also gave a GI50 (SF-539 CNS) of 1900 nM, a TGI (SF-539 CNS) of 5.02 µM and a GI50 (SK-MEL-2 melanoma) of 3.75 µM. It also gave a TGI (SK-MEL-2 melanoma) of 15.3 µM, a GI50 (SK-MEL-28 melanoma) of 1780 nM and a TGI (SK-MEL-28 melanoma) of 3.87 µM. The GI50 (SK-MEL-5 melanoma) was 1440 nM, the TGI (SK-MEL-5 melanoma) was 4.07 µM and the GI50 (SK-OV-3 ovarian) was 1280 nM. It also gave a TGI (SK-OV-3 ovarian) of 4.36 µM, a GI50 (SN12C renal) of 3.37 µM and a TGI (SN12C renal) of 13.8 µM. The GI50 (SNB-19 CNS) was 4.74 µM, the TGI (SNB-19 CNS) was 15.7 µM and the GI50 (SNB-75 CNS) was 3.53 µM. The TGI (SNB-75 CNS) was 16.4 µM, the GI50 (SR leukemia) was 1030 nM and the TGI (SR leukemia) was 6.1 µM. The GI50 (SW-620 colon) was 2660 nM, the TGI (SW-620 colon) was 7.25 µM and the GI50 (T-47D breast) was 5.06 µM. For the same compound, the TGI (T-47D breast) was 21.5 µM, the GI50 (TK-10 renal) was 11 µM and the TGI (TK-10 renal) was 23.7 µM. The GI50 (U251 CNS) was 3.38 µM, the TGI (U251 CNS) was 12.7 µM and the GI50 (UACC-257 melanoma) was 3.42 µM. It also gave a TGI (UACC-257 melanoma) of 9.6 µM, a GI50 (UACC-62 melanoma) of 3.44 µM and a TGI (UACC-62 melanoma) of 11.1 µM. The GI50 (UO-31 renal) was 1400 nM and the TGI (UO-31 renal) was 11.2 µM.
